Results from article PMC11799985 (ACS Omega, 2024).
Entries after “also recorded” stand apart in the source; their conditions may differ. Where two headings read alike, the source gives them in different places.

Target: T1, TbSir2rp1 (Trypanosoma brucei brucei, UniProt Q57V41)
T1 construct: The TbSir2rp1 gene was cloned into the pET24(+) expression plasmid (Novagen); His tag; made in house; host or cells: Escherichia coli BL21-Codon Plus (DE3)-RIL
T1 sequence (Q57V41 1-351): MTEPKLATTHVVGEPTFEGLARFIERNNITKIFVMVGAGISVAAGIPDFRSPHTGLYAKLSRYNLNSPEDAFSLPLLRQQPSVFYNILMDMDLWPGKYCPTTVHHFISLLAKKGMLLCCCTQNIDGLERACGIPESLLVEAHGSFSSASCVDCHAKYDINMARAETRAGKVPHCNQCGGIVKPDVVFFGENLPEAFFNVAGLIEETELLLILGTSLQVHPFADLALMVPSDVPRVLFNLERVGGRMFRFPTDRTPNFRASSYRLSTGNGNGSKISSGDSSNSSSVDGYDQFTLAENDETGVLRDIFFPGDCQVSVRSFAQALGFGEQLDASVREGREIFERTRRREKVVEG
Test: biochemical
Conditions: for ligand efficiency (LE): LE = –R·T·ln(IC50)/HAC, from TbSir2rp1 IC50; for IC50: enzyme 1 μM, NAD+ 100 μM, acetylated peptide 50 μM, 37 °C, 2 h; for Hill coefficient (nH): concentration–response curve against TbSir2rp1
Experimental: The acetylated peptide corresponds to the sequence Abz-Gly-Pro-acetylLys-SerGln–EDDnp, where Abz is ortho-aminobenzoic acid and EDDnp is N-[2,4-dinitrophenyl]ethylenediamine.
To halt the deacetylation reaction, 4 mM nicotinamide was used. For each pair of wells in the 96-well plate, 0.2 mg/mL of trypsin was added to only one well to hydrolyze the acetylated peptide, enabling fluorescence emission. Fluorescence was measured immediately at 420 nm with excitation at 320 nm using a SpectraMax M2 microplate reader (Molecular Devices).
Deacetylation activity was determined by the difference between the well where trypsin was added and the well without trypsin. All assays were performed in triplicate, and activity values were reported as means ± standard deviations with outliers identified and excluded from the calculations. Statistical analyses were conducted using Prism 7 software (GraphPad).
The screening of the 90 fragments was performed at a single concentration of 500 μM in triplicate. The enzyme was used at 1 μM, and the substrates NAD^+ and acetylated peptide were used at 100 and 50 μM, respectively. Incubation was carried out at 37.0 °C for 2 h. Each fragment was added to a pair of wells, with trypsin being added to only one well, as previously described for inhibitory activity calculation. […] Ligand efficiency (LE) was calculated as LE = –R·T·ln(IC50)/HAC using IC50 values instead of KD for comparison. […] The inhibition mechanism was characterized using Lineweaver–Burk plots under five concentrations of each substrate and three concentrations of the fragment. IC50 values were determined with at least seven different concentrations, and Lineweaver–Burk analysis used six concentrations.

[1] = read-out: % Inhibition TbSir2rp1, Table S2, complete fragment library, single concentration of 500 μM
[2] = read-out: % Inhibition TbSir2rp1 at 500 μM, Table 1, fragment 500 μM, triplicate, mean ± SD

Compound	inhibition at 500 µM [1] [%]	further results
C(=N\c1nncs1)/c1ccc(Sc2ccccc2)cc1	38 ± 1.7	
C(=N\c1nnc(Cc2ccccc2)o1)/c1ccccc1	41 ± 12	
CS(=O)(=O)Nc1cccc(-c2nc3ccccc3[nH]2)c1	-0.8 ± 4.1	
Nc1cc2nc(-c3cccc(C(F)(F)F)c3)cn2cn1	19 ± 28	
O=C1C(O)=C(Nc2ccc(F)cc2)C(=O)c2ccccc21	71 ± 23	
Cc1cccc(C)c1NC1=C(O)C(=O)c2ccccc2C1=O	39 ± 4.6	
CC(C)NCC1CCc2cc(CO)c([N+](=O)[O-])cc2N1 (stereo not drawn)		inhibition at 500 µM (read-out: % Inhibition TbSir2rp1): 24 ± 7.9%
Cc1cn([C@H]2C[C@H](N=[N+]=[N-])[C@@H](CO)O2)c(=O)[nH]c1=O	8.2 ± 1.4	
CN1C(=O)CN=C(c2ccccc2)c2cc(Cl)ccc21	37 ± 2.2	
NC(=O)c1ncn([C@@H]2O[C@H](CO)[C@@H](O)[C@H]2O)n1	-11 ± 11	
c1ccc(C2CN3CCSC3=N2)cc1 (stereo not drawn) [C12=NC(C3=CC=CC=C3)CN1CCS2]	10 ± 1.4	
C/C(=N\NC(N)=O)c1ccncc1 [C/C(C1=CC=NC=C1)=N\NC(N)=O]	31 ± 13	
Cc1oc2ncccc2c1C(=O)O [CC1=C(C(O)=O)C2=C(O1)N=CC=C2]	19 ± 17	
CCOC(=O)c1c(C)oc2nc(Cl)ccc12 [CC1=C(C(OCC)=O)C2=C(O1)N=C(Cl)C=C2]	-29 ± 18	
CCOC(=O)c1c(C)oc2ncc(Br)cc12 [CC1=C(C(OCC)=O)C2=C(O1)N=CC(Br)=C2]	-7.1 ± 9.1	
CCOC(=O)c1c(C)oc2ncccc12 [CC1=C(C(OCC)=O)C2=C(O1)N=CC=C2]	-29 ± 12	
CCOC(=O)c1c(C)oc2c1ccc[n+]2[O-] [CC1=C(C(OCC)=O)C2=C(O1)[N+]([O-])=CC=C2]	-2.9 ± 10	
Cc1ccc(S(=O)(=O)n2ncc3ccccc32)cc1 [CC1=CC=C(S(N2N=CC3=C2C=CC=C3)(=O)=O)C=C1]	4 ± 30	
Cc1ccc(S(=O)(=O)n2cccn2)cc1 [CC1=CC=C(S(N2N=CC=C2)(=O)=O)C=C1]	8.4 ± 20	
Cc1ncc([N+](=O)[O-])n1CCO [CC1=NC=C([N+]([O-])=O)N1CCO]	14 ± 3.1	
CC(C)Cc1ccc(C(C)C(=O)O)cc1 (stereo not drawn) [CC(C1=CC=C(CC(C)C)C=C1)C(O)=O]	-2.1 ± 0.21	
CC(C)(Oc1ccc(C2CC2(Cl)Cl)cc1)C(=O)O (stereo not drawn) [CC(C)(OC1=CC=C(C2C(Cl)(Cl)C2)C=C1)C(O)=O]	4.9 ± 4.7	
CCOc1ccc(NC(C)=O)cc1 [CC(NC1=CC=C(OCC)C=C1)=O]	-5.5 ± 1.5	

Compound	inhibition at 500 µM [1] [%]	further results
CC(=O)Nc1ccccc1 [CC(NC1=CC=CC=C1)=O]	7.7 ± 21	
CCOC1NN=C(c2ccccc2)N1 (stereo not drawn) [CCOC1NC(C2=CC=CC=C2)=NN1]	-3.3 ± 1.9	
COc1cc(C)c(NC(C)=O)cn1 [COC1=NC=C(NC(C)=O)C(C)=C1]	1.6 ± 13	
COc1cc2cn[nH]c2cn1 [COC1=NC=C(NN=C2)C2=C1]	56 ± 15	
CS(=O)(=O)Nc1cccc(-c2ccccc2)c1 [CS(NC1=CC=CC(C2=CC=CC=C2)=C1)(=O)=O]	35 ± 3.7	
CN[C@@H](C)[C@H](O)c1ccccc1 [C[C@H](NC)[C@@H](C1=CC=CC=C1)O]	23 ± 6.4	
O=S(=O)(c1ccc(Cl)cc1)c1ccc(Cl)cc1 [ClC1=CC=C(S(C2=CC=C(Cl)C=C2)(=O)=O)C=C1]	44 ± 12	
CC(=O)n1ncc2cc(Cl)ncc21 [ClC1=NC=C(N(C(C)=O)N=C2)C2=C1]	19 ± 9.9	
Cc1cc(Cl)ncc1N [ClC1=NC=C(N)C(C)=C1]	8.8 ± 19	
Nc1ccc(C(=O)c2ccccc2)cc1 [Fragment 1.2]		ligand efficiency (LE): 0.37; IC50 (TbSir2rp1, read-out: IC50): 80.9 µM; Hill coefficient (nH): 0.72; inhibition mechanism (Lineweaver–Burk plot) (for both substrates, acetylated peptide and NAD+): competitive
Sc1nc2ccccc2s1 [Fragment 1.3]		IC50 (IC50, TbSir2rp1): 125 µM; ligand efficiency (LE): 0.54; Hill coefficient (nH): 1.04
CCOc1ccc2nc(N)sc2c1 [Fragment 1.4]		inhibition of TbSir2rp1 (in words): did not inhibit; also recorded: No inhibition
Nc1ccc(Nc2ccccc2)cc1 [Fragment 1.5]		IC50 (TbSir2rp1, read-out: IC50): > 500 µM
CCc1[nH][nH]c(=O)c1-c1cccnc1O [Fragment 3]	88 ± 14	ligand efficiency (LE): 0.37; Hill coefficient (nH): 1.77; inhibition at 500 µM [2]: 88.3 ± 14.2%
CN(C)c1ccc(/C=N/c2nnc(-c3ccccc3)o2)cc1 [Fragment 4]	78 ± 2.3	ligand efficiency (LE): 0.25; IC50 (TbSir2rp1, read-out: IC50): 94.4 µM; Hill coefficient (nH): 1.10; inhibition at 500 µM [2]: 78.4 ± 2.3%
O=c1ccc2ccccc2[nH]1 [Fragment 6]	60 ± 5.5	ligand efficiency (LE): 0.41; Hill coefficient (nH): 1.19; inhibition at 500 µM [2]: 59.7 ± 5.5%
Clc1cc2cn[nH]c2cn1 [Fragment 7]	61 ± 9.1	inhibition at 500 µM [2]: 60.6 ± 9.1%
O=C1Cc2cnccc2CN1 [Fragment 8]	55 ± 4.8	inhibition at 500 µM [2]: 55.5 ± 4.8%
Cc1ccc(S(=O)(=O)N(C)/N=C/c2cccs2)cc1 [Fragment 9]	65 ± 1.7	inhibition at 500 µM [2]: 64.8 ± 1.7%
N=C(N)N/N=C/c1cccs1 [Fragment 10]	56 ± 4.9	inhibition at 500 µM [2]: 55.7 ± 4.9%
O=C(/C=C/c1ccccc1Cl)c1ccc2c(c1)OCO2 [Fragment 12]	102 ± 5.9	inhibition at 500 µM [2]: 102 ± 5.9%
O=C1C(O)=C(Nc2ccccc2)C(=O)c2ccccc21 [Fragment 13]	95 ± 4.9	inhibition at 500 µM [2]: 95.3 ± 4.9%
C1CN2CCN1CC2 [N1(CC2)CCN2CC1]	2.7 ± 2.6	

Compound	inhibition at 500 µM [1] [%]	further results
NC(N)=NS(=O)(=O)c1ccc(N)cc1 [N/C(N)=N\S(=O)(C1=CC=C(N)C=C1)=O]	1.8 ± 1.9	
N/C(=N/c1ccccc1)Nc1ccccc1 [N/C(NC1=CC=CC=C1)=N/C2=CC=CC=C2]	2.6 ± 1.1	
Nc1ccc(S(=O)(=O)c2ccc(N)cc2)cc1 [NC1=CC=C(S(C2=CC=C(N)C=C2)(=O)=O)C=C1]	48 ± 4.1	
Nc1cccc([N+](=O)[O-])c1 [NC1=CC=CC([N+]([O-])=O)=C1]	27 ± 0.91	
Nc1nnc(-c2ccccc2)o1 [NC1=NN=C(O1)C2=CC=CC=C2]	16 ± 0.61	
NNC(=O)/C=C/c1ccccc1 [NNC(/C=C/C1=CC=CC=C1)=O]	42 ± 8.5	
NNS(=O)(=O)c1ccc(Cl)cc1 [NNS(=O)(C1=CC=C(Cl)C=C1)=O]	37 ± 24	
Cc1ccc(S(=O)(=O)NN)cc1 [NNS(C1=CC=C(C)C=C1)(=O)=O]	53 ± 5.2	
CC1(C)CCC2=C(O1)c1ccccc1C(=O)C2=O [O=C1C2=C(OC(C)(C)CC2)C3=CC=CC=C3C1=O]	43 ± 5.2	
O=C1NCCn2cccc21 [O=C1C2=CC=CN2CCN1]	-35 ± 5	
O=C1CCSc2nc(-c3ccccc3)nn21 [O=C1CCSC2=NC(C3=CC=CC=C3)=NN21]	3 ± 1.7	
O=C1Nc2ccccc2C1=O [O=C1NC2=C(C=CC=C2)C1=O]	49 ± 0.31	
O=c1[nH]nc(-c2ccccc2)[nH]1 [O=C1NC(C2=CC=CC=C2)=NN1]	0.91 ± 7.3	
O=C1NC(=O)C(c2ccccc2)(c2ccccc2)N1 [O=C1NC(C(C2=CC=CC=C2)(C3=CC=CC=C3)N1)=O]	52 ± 2.3	
O=C(/C=C/c1ccc(Cl)cc1)c1cccs1 [O=C(/C=C/C1=CC=C(Cl)C=C1)C2=CC=CS2]	32 ± 8.5	
COC1=CC(=O)c2ccccc2C1=O [O=C(C1=C2C=CC=C1)C(OC)=CC2=O]	44 ± 3.7	
CC1(C)CCC2=C(O1)C(=O)c1ccccc1C2=O [O=C(C1=C2OC(C)(C)CC1)C3=CC=CC=C3C2=O]	33 ± 14	
NNC(=O)c1ccncc1 [O=C(C1=CC=NC=C1)NN]	-4.9 ± 2.4	
CCn1cc(C(=O)O)c(=O)c2ccc(C)nc21 [O=C(C1=CN(CC)C2=C(C=CC(C)=N2)C1=O)O]	-6.5 ± 2.2	
NC(=O)c1cnccn1 [O=C(C1=NC=CN=C1)N]	22 ± 1.5	
CC(=O)NCCN1C(=O)CNC1=O [O=C(CN1)N(CCNC(C)=O)C1=O]	5.8 ± 3.4	
Cn1cnc2c1c(=O)[nH]c(=O)n2C [O=C(N1)N(C)C2=C(N(C)C=N2)C1=O]	17 ± 4.4	
Cn1c(=O)c2[nH]cnc2n(C)c1=O [O=C(N1C)N(C)C2=C(NC=N2)C1=O]	-2.1 ± 3	
